{"source": "patent US7803757B2", "about": "“Peptides based on the sequence of human lactoferrin and their use” (PharmaSurgics in Sweden AB, priority 1998, dated 2010)", "assay_type_in_all_cases": "cell-based", "key": {"[1]": {"tested_on": "E. coli O6", "method": "(§1) In the examples, the minimal microbicidal concentrations (MMC) and minimal inhibitory concentrations (MIC) were determined as follows, unless otherwise specified in the examples. Bacterial or fungal strains were cultured in BHI medium over night at 37° C. A volume of the culture was transferred to a new tube with BHI and incubated for two more hours. Thereafter the cells were spun down and the pellet was suspended in BHI medium diluted 1/100 (1% BHI). The concentration of bacterial or fungal cells was spectrophotometrically determined at 650 nm. The microbial concentrations were also determined by viable counts. Peptides serially diluted in 1% BHI by twofold or tenfold steps were added in triplicate to the wells of a microtiterplate (200 μl per well). The bacterial or fungal cell solutions were added in 10 μl volumes to give a final concentration of approximately 1-5×10^5 cells per ml in the well. The microplate was incubated at 37° C. in a humid chamber for two hours. Thereafter 5 μl was taken from each well and added as a drop onto a blood agar plate and incubated over night at 37° C. The microplate was incubated for another 20 hours at 37° C. and thereafter analysed spectrophotometrically at 650 nm in a microplate reader (Emax, Molecular Devices, USA). The concentration of peptide causing a 99% reduction of the inoculum after 2 hours of incubation was defined as the MMC99%. The MIC value was defined as the concentration giving no increase in the absorbance value above the background level after 20 hours of incubation.\n(§2) C. albicans (ATCC64549) and E. coli O6, respectively, were incubated with the different peptides. The experiments were performed with 1, 10, 25 and 100 μg/ml of peptide."}, "[2]": {"tested_on": "C. albicans (ATCC64549)", "method": "as §1, §2"}, "[3]": {"tested_on": "C. albicans yeast cells (ATCC64549)", "test": "killing and growth inhibition of C. albicans at pH 4.5 (Example 11)", "parameters": "key to C. albicans inhibition (OD650): + = no increase in OD650 is seen; − = OD650 continues to increase", "conditions": "pH 4.5, 1% BHI, 25 μg/ml of the peptide; for C. albicans inhibition (OD650): OD650 after an additional 18 hours; for C. albicans killing: 99% / C. albicans killing: 100%: 2 hours", "method": "C. albicans yeast cells (ATCC64549) were incubated for 2 hours at pH 4.5 in BHI medium diluted to 1% of the original concentration containing 25 µg/ml of the peptide. Thereafter the fungal solutions were cultured on blood agar plates. OD650 was measured after incubation during an additional 18 hours. The fungicidal effect of the peptides on C. albicans was determined as the ability of the peptide to kill 100% and 99%, respectively, of the fungus, while the growth inhibitory effect was determined by measuring the OD650. An inhibitory effect existed when no increase in OD650 was recorded."}, "[4]": {"tested_on": "S. aureus", "test": "killing of bacteria at fixed peptide concentration, S. aureus (Example 12)", "conditions": "peptide 25 μg/ml", "method": "(§3) In this example, the peptides according to the invention were used to study the effect on the killing of different bacteria.\n(§4) The peptides were used at a concentration of 25 μg/ml."}, "[5]": {"tested_on": "P. aeruginosa", "test": "killing of bacteria at fixed peptide concentration, P. aeruginosa (Example 12)", "conditions": "peptide 25 μg/ml", "method": "as §3, §4"}, "[6]": {"tested_on": "E. faecalis", "test": "killing of bacteria at fixed peptide concentration, E. faecalis (Example 12)", "conditions": "peptide 25 μg/ml", "method": "as §3, §4"}, "[7]": {"tested_on": "S. epidermis", "test": "killing of bacteria at fixed peptide concentration, S. epidermis (Example 12)", "conditions": "peptide 25 μg/ml", "method": "as §3, §4"}, "[8]": {"tested_on": "K. pneumoniae", "test": "killing of bacteria at fixed peptide concentration, K. pneumoniae (Example 12)", "conditions": "peptide 25 μg/ml", "method": "as §3, §4"}, "[9]": {"tested_on": "Candida albicans ATCC 64549", "test": "fungicidal and growth inhibitory activity, Candida albicans ATCC 64549 (Example 8)", "method": "Candida albicans ATCC 64549 (1·10^5/ml) was incubated in the presence of the peptides during 2 hours at 37° C. in diluted growth medium (BHI, twofold serial dilutions starting with 50 μg/ml). The fungicidal activity was measured by culturing 5 μl from each incubation well on Saboroud agar plates.\nThe inhibition of growth was measured spectrophotometrically after 20 hours of incubation."}, "[10]": {"tested_on": "E. coli O14", "test": "bactericidal and growth inhibitory activity, E. coli O14 (Example 9)", "method": "E. coli O14 was incubated as described above in the presence of the peptides during 2 hours. The bactericidal activity was measured in the same way as described above.\nThe inhibition of growth was measured spectrophotometrically after incubation during 20 hours."}, "[11]": {"conditions": "E. coli O6, tested at 1, 10, 25 and 100 μg/ml of peptide"}, "[12]": {"conditions": "C. albicans, tested at 1, 10, 25 and 100 μg/ml of peptide"}}, "note": "Read-outs that look alike come from different tables or passages of the source. Ends that are not written are not given here."}
{"substance": "EATKCFQWQRNMRKVR [Peptide 64]", "values": [{"measurement": "MMC99%", "setting": "[1]; [11]", "value": 10, "unit": "µg/mL"}, {"measurement": "MIC", "setting": "[1]; O6", "value": 10, "unit": "µg/mL"}, {"measurement": "MIC", "setting": "[2]; ATCC64549", "value": 10, "unit": "µg/mL"}, {"measurement": "MMC99%", "setting": "[2]; [12]", "value": 25, "unit": "µg/mL"}, {"measurement": "C. albicans inhibition (OD650)", "setting": "[3]", "value": "+"}, {"measurement": "C. albicans killing: 99%", "setting": "[3]", "value": "+ (+ = 100/99% of the bacteria are killed)"}, {"measurement": "C. albicans killing: 100%", "setting": "[3]", "value": "− (− = less than 100/99% of the bacteria are killed)"}, {"measurement": "killing of bacteria: S. aureus", "setting": "[4]", "value": "+ (+ = 99% of the bacteria are killed)"}, {"measurement": "killing of bacteria: P. aeruginosa", "setting": "[5]", "value": "− (− = less than 99% of the bacteria are killed)"}, {"measurement": "killing of bacteria: E. faecalis", "setting": "[6]", "value": "+ (+ = 99% of the bacteria are killed)"}, {"measurement": "killing of bacteria: S. epidermis", "setting": "[7]", "value": "+ (+ = 99% of the bacteria are killed)"}, {"measurement": "killing of bacteria: K. pneumoniae", "setting": "[8]", "value": "− (− = less than 99% of the bacteria are killed)"}]}
{"substance": "KCFQWQRNMRKVRGPPVSCI [Morinaga 24] (KCFQWQRNMRKVRGPPVSCI; also: cyclic peptide, ring type not given here) [reference compound]", "values": [{"measurement": "Concentration of agent for 100% killing", "setting": "[9]; C. albicans ATCC 64549 1·10^5/ml, 2 hours 37° C., diluted BHI", "value": 12.5, "unit": "µg/mL"}, {"measurement": "Concentration of agent for inhibition of growth", "setting": "[9]; C. albicans ATCC 64549, spectrophotometrically after 20 hours", "value": 12.5, "unit": "µg/mL"}, {"measurement": "Concentration of agent for 100% killing", "setting": "[10]; E. coli O14, 2 hours", "value": 25, "unit": "µg/mL"}, {"measurement": "Concentration of agent for inhibition of growth", "setting": "[10]; E. coli O14, spectrophotometrically after 20 hours", "value": 6.2, "unit": "µg/mL"}]}
{"substance": "QWQRNMRKVR [Peptide 40]", "values": [{"measurement": "MMC99%", "setting": "[1]; [11]", "value": ">25", "unit": "µg/mL"}, {"measurement": "MIC", "setting": "[1]; O6", "value": ">25", "unit": "µg/mL"}, {"measurement": "MIC", "setting": "[2]; ATCC64549", "value": 25, "unit": "µg/mL"}, {"measurement": "MMC99%", "setting": "[2]; [12]", "value": 25, "unit": "µg/mL"}, {"measurement": "C. albicans inhibition (OD650)", "setting": "[3]", "value": "−"}, {"measurement": "C. albicans killing: 99%", "setting": "[3]", "value": "− (− = less than 100/99% of the bacteria are killed)"}, {"measurement": "C. albicans killing: 100%", "setting": "[3]", "value": "− (− = less than 100/99% of the bacteria are killed)"}, {"measurement": "killing of bacteria: S. aureus", "setting": "[4]", "value": "− (− = less than 99% of the bacteria are killed)"}, {"measurement": "killing of bacteria: P. aeruginosa", "setting": "[5]", "value": "− (− = less than 99% of the bacteria are killed)"}, {"measurement": "killing of bacteria: E. faecalis", "setting": "[6]", "value": "− (− = less than 99% of the bacteria are killed)"}, {"measurement": "killing of bacteria: S. epidermis", "setting": "[7]", "value": "+ (+ = 99% of the bacteria are killed)"}, {"measurement": "killing of bacteria: K. pneumoniae", "setting": "[8]", "value": "− (− = less than 99% of the bacteria are killed)"}]}
{"substance": "FQWQRNMRKVR [Peptide 44]", "values": [{"measurement": "MMC99%", "setting": "[1]; [11]", "value": 10, "unit": "µg/mL"}, {"measurement": "MIC", "setting": "[1]; O6", "value": 10, "unit": "µg/mL"}, {"measurement": "MIC", "setting": "[2]; ATCC64549", "value": 10, "unit": "µg/mL"}, {"measurement": "MMC99%", "setting": "[2]; [12]", "value": 10, "unit": "µg/mL"}, {"measurement": "C. albicans inhibition (OD650)", "setting": "[3]", "value": "−"}, {"measurement": "C. albicans killing: 99%", "setting": "[3]", "value": "− (− = less than 100/99% of the bacteria are killed)"}, {"measurement": "C. albicans killing: 100%", "setting": "[3]", "value": "− (− = less than 100/99% of the bacteria are killed)"}, {"measurement": "killing of bacteria: S. aureus", "setting": "[4]", "value": "+ (+ = 99% of the bacteria are killed)"}, {"measurement": "killing of bacteria: P. aeruginosa", "setting": "[5]", "value": "− (− = less than 99% of the bacteria are killed)"}, {"measurement": "killing of bacteria: E. faecalis", "setting": "[6]", "value": "+ (+ = 99% of the bacteria are killed)"}, {"measurement": "killing of bacteria: S. epidermis", "setting": "[7]", "value": "+ (+ = 99% of the bacteria are killed)"}, {"measurement": "killing of bacteria: K. pneumoniae", "setting": "[8]", "value": "− (− = less than 99% of the bacteria are killed)"}]}
{"substance": "Peptide 57: 14 amino acids, modified positions 18-31 of human lactoferrin; sequence only in sequence listing (TKKFQWQRNMRKVR)", "values": [{"measurement": "MIC", "setting": "[1]; [11]", "value": 10, "unit": "µg/mL"}, {"measurement": "MMC99%", "setting": "[1]; [11]", "value": 10, "unit": "µg/mL"}, {"measurement": "MIC", "setting": "[2]; [12]", "value": 10, "unit": "µg/mL"}, {"measurement": "MMC99%", "setting": "[2]; [12]", "value": 25, "unit": "µg/mL"}, {"measurement": "C. albicans inhibition (OD650)", "setting": "[3]", "value": "+"}, {"measurement": "C. albicans killing: 99%", "setting": "[3]", "value": "+ (+ = 100/99% of the bacteria are killed)"}, {"measurement": "C. albicans killing: 100%", "setting": "[3]", "value": "+ (+ = 100/99% of the bacteria are killed)"}, {"measurement": "killing of bacteria: S. aureus", "setting": "[4]", "value": "+ (+ = 99% of the bacteria are killed)"}, {"measurement": "killing of bacteria: P. aeruginosa", "setting": "[5]", "value": "+ (+ = 99% of the bacteria are killed)"}, {"measurement": "killing of bacteria: E. faecalis", "setting": "[6]", "value": "+ (+ = 99% of the bacteria are killed)"}, {"measurement": "killing of bacteria: S. epidermis", "setting": "[7]", "value": "+ (+ = 99% of the bacteria are killed)"}, {"measurement": "killing of bacteria: K. pneumoniae", "setting": "[8]", "value": "+ (+ = 99% of the bacteria are killed)"}]}
